Measured values taken from patent US8552002B2 (Novartis AG, priority 2004, dated 2013).

Experiments:
Type in all cases: biochemical
KDR = molecular target: T1, KDR (Homo sapiens, UniProt P35968); assay: Inhibitory activity against KDR (VEGF-R2), in vitro data of Examples 170 and 207; conditions: 10 μM; Examples 1 to 169; read-out: KDR inhibition at 10 μM
T1 construct: expressed in transfected cells; host or cells: CHO cells
Procedure, shortened: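 KDR tyrosine phosphorylation detected by luminescence after overnight 4° C capture of 20 μg lysate protein with PY20:AP antibody. Lysates came from cells given compound for 2 h at 37° C, then final 20 ng/ml VEGF for 5 min; compound-free medium as control.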

Tek = molecular target: T2, Tek (Homo sapiens, UniProt Q02763); assay: Recombinant GST-Tek (Tie-2) tyrosine kinase assay (33P into poly(Glu,Tyr)); conditions: Examples 1 to 169
T2 construct: amino acids 773-1124 of the cytoplasmic kinase domain of human Tek, N-terminally fused to GST; made in house; host or cells: Sf9 insect cells (baculovirus)
Procedure, shortened: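 Read-out is filter-bound 33P in poly(Glu,Tyr) 4:1 (10 μg/mL) after 30 min at ambient temperature with 4.0 μM ATP. Enzyme: 150 ng human GST-Tek (aa 773-1124) from insect cells, in Tris pH 7.5 with Mn2+/Mg2+ and vanadate. IC50 fitted linearly over four concentrations, usually 0.01-10 μM.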

FGFR3 (K650E) = molecular target: T3, FGFR3 (K650E) (Homo sapiens, UniProt P22607, K650E); assay: Recombinant GST-FGFR-3-K650E tyrosine kinase assay (33P into poly(Glu,Tyr)); conditions: 10 μM; Examples 1 to 169; read-out: FGFR3 (K650E) inhibition at 10 μM
T3 construct: amino acids 411-806 of the cytoplasmic domain of human FGFR-3, N-terminally fused to GST; made in house; host or cells: Sf9 insect cells (baculovirus)
T3 sequence (P22607 411-806 K650E): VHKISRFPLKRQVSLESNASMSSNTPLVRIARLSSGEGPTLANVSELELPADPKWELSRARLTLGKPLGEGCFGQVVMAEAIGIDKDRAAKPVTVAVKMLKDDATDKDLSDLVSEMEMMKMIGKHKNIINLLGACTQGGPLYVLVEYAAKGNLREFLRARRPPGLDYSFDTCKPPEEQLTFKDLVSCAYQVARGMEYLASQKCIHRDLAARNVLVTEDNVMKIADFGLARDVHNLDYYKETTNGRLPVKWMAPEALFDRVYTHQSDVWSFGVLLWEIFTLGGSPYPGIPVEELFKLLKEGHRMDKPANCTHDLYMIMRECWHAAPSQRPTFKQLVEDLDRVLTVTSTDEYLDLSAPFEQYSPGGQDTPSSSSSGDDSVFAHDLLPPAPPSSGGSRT

T1 sequence (P35968 20-1356): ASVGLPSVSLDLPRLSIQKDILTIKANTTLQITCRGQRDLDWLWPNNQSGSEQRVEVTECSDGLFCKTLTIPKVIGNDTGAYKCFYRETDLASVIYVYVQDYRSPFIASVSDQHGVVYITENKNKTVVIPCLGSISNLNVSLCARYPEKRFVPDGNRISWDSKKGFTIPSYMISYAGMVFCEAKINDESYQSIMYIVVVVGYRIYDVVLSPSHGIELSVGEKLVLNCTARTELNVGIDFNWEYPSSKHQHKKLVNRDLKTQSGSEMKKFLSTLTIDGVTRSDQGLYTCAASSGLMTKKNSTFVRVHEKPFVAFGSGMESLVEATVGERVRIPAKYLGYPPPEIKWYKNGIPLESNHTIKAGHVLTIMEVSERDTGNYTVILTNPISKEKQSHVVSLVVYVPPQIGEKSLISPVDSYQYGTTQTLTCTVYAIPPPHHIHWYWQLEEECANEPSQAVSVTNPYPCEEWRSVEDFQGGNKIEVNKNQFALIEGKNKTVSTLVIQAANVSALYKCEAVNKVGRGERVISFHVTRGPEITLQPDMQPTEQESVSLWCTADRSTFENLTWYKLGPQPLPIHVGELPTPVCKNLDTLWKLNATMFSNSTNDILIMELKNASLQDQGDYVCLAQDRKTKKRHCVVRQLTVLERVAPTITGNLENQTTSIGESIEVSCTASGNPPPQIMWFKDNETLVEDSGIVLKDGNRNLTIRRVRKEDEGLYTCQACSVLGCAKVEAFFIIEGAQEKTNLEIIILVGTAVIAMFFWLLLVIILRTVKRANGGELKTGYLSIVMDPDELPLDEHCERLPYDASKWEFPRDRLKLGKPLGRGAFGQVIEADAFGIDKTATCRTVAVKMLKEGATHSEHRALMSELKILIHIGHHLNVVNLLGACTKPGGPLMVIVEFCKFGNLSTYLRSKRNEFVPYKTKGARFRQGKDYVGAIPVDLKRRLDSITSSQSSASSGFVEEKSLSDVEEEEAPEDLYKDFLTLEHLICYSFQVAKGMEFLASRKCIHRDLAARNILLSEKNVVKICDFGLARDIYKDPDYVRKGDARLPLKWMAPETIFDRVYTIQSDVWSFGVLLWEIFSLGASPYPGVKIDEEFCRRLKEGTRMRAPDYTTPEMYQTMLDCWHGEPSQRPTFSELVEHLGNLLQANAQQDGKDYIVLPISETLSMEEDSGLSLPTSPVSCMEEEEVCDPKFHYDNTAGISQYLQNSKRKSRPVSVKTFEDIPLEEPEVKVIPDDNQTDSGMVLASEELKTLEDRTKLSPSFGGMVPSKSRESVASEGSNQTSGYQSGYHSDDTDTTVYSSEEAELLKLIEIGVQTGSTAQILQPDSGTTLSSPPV
T2 sequence (Q02763 773-1124): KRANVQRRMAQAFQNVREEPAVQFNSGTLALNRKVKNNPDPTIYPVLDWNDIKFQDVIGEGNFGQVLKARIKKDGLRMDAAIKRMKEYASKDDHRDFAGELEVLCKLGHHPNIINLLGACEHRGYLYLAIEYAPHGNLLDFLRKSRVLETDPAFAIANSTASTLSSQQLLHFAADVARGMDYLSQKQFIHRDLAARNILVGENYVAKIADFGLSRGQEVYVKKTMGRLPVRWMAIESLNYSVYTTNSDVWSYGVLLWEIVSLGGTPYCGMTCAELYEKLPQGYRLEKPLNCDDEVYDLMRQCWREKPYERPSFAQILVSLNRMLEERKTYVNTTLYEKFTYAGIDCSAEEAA

inhibition at 10 µM (KDR) [%]	inhibition at 10 µM (Tek) [%]	inhibition at 10 µM (FGFR3 (K650E)) [%]	Compound
67 to 100	12 to 100	27 to 100	CCN(C(=O)Nc1c(Cl)c(OC)cc(OC)c1Cl)c1cc(Nc2ccc(C(=O)N3CCN(C)CC3)cc2)ncn1 [Example 64, 3-(2,6-Dichloro-3,5-dimethoxy-phenyl)-1-ethyl-1-{6-[4-(4-methyl-piperazine-1-carbonyl)-phenylamino]-pyrimidin-4-yl}-urea]
67 to 100	12 to 100	27 to 100	COc1ccc(NC(=O)Nc2cc(Nc3ccc(N4CCN(C)CC4)cc3)ncn2)c(OC)c1 [Example 16, 1-(2,4-Dimethoxy-phenyl)-3-{6-[4-(4-methyl-piperazin-1-yl)-phenyl-amino]-pyrimidin-4-yl}-urea]
67 to 100	12 to 100	27 to 100	COc1cc(NC(=O)N(C)c2cc(Nc3cccc(OCCN(C)C)c3)ncn2)c(Cl)c(OC)c1 [Example 54, 3-(2-Chloro-3,5-dimethoxy-phenyl)-1-{6-[3-(2-dimethylamino-ethoxy)-phenylamino]-pyrimidin-4-yl}-1-methyl-urea]
67 to 100	12 to 100	27 to 100	COc1ccc(Cl)c(NC(=O)Nc2cc(Nc3cccc(N4CCN(C)CC4)c3)ncn2)c1 [Example 29, 1-(2-Chloro-5-methoxy-phenyl)-3-{6-[3-(4-methyl-piperazin-1-yl)-phenyl-amino]-pyrimidin-4-yl}-urea]
67 to 100	12 to 100	27 to 100	COc1cc(NC(=O)N(C)c2cc(Nc3cccc(N4CCN(C)CC4)c3)ncn2)cc(OC)c1 [Example 48, 3-(3,5-Dimethoxy-phenyl)-1-methyl-1-{6-[3-(4-methyl-piperazin-1-yl)-phenylamino]-pyrimidin-4-yl}-urea]
67 to 100	12 to 100	27 to 100	O=C(Nc1cc(Nc2ccc(OCCCN3CCOCC3)cc2)ncn1)Nc1c(Cl)cccc1Cl [Example 98, 1-(2,6-Dichloro-phenyl)-3-{6-[4-(3-morpholin-4-yl-propoxy)-phenylamino]-pyrimidin-4-yl}-urea]
67 to 100	12 to 100	27 to 100	CN(C)c1cccc(Nc2cc(NC(=O)Nc3c(F)cccc3F)ncn2)c1 [Example 106, 1-(2,6-Difluoro-phenyl)-3-[6-(3-dimethylamino-phenylamino)-pyrimidin-4-yl]-urea]
67 to 100	12 to 100	27 to 100	O=C(Nc1cc(Nc2ccc(OCCN3CCOCC3)cc2)ncn1)Nc1ccccc1Br [Example 97, 1-(2-Bromo-phenyl)-3-{6-[4-(2-morpholin-4-yl-ethoxy)-phenylamino]-pyrimidin-4-yl}-urea]
67 to 100	12 to 100	27 to 100	CN(C(=O)Nc1c(Cl)cccc1Cl)c1cc(Nc2ccc(F)cc2)ncn1 [Example 123, 3-(2,6-Dichloro-phenyl)-1-[6-(4-fluoro-phenylamino)-pyrimidin-4-yl]-1-methyl-urea]
67 to 100	12 to 100	27 to 100	COc1cc(OC)c(Cl)c(NC(=O)Nc2cc(Nc3ccc(OCCN4CCN(C)CC4)cc3)ncn2)c1Cl [Example 158, 1-(2,6-Dichloro-3,5-dimethoxy-phenyl)-3-(6-{4-[2-(4-methyl-piperazin-1-yl)-ethoxy]-phenylamino}-pyrimidin-4-yl)-urea]
67 to 100	12 to 100	27 to 100	CCN(CC)CCCOc1ccc(Nc2cc(NC(=O)Nc3c(Cl)cccc3Cl)ncn2)cc1 [Example 103, 1-(2,6-Dichloro-phenyl)-3-{6-[4-(3-diethylamino-propoxy)-phenylamino]-pyrimidin-4-yl}-urea]
67 to 100	12 to 100	27 to 100	COc1cc(OC)c(Cl)c(NC(=O)N(C)c2cc(Nc3ccc(OC4CCN(C)CC4)cc3)ncn2)c1Cl [Example 165, 3-(2,6-Dichloro-3,5-dimethoxy-phenyl)-1-methyl-{6-[4-(1-methyl-piperidin-4-yloxy)-phenylamino]-pyrimidin-4-yl}-urea]
67 to 100	12 to 100	27 to 100	COc1ccc(Cl)cc1NC(=O)Nc1cc(Nc2ccc(N3CCN(C)CC3)cc2)ncn1 [Example 78, 1-(5-Chloro-2-methoxy-phenyl)-3-{6-[4-(4-methyl-piperazin-1-yl)-phenylamino]-pyrimidin-4-yl}-urea]
67 to 100	12 to 100	27 to 100	COc1cc(NC(=O)N(C)c2cc(Nc3ccccc3)ncn2)c(Cl)c(OC)c1 [Example 49, 3-(2-Chloro-3,5-dimethoxy-phenyl)-1-methyl-1-(6-phenylamino-pyrimidin-4-yl)-urea]
67 to 100	12 to 100	27 to 100	CCN1CCN(Cc2cccc(Nc3cc(N(C)C(=O)Nc4c(Cl)c(OC)cc(OC)c4Cl)ncn3)c2)CC1 [Example 150, 3-(2,6-Dichloro-3,5-dimethoxy-phenyl)-1-{6-[3-(4-ethyl-piperazin-1-ylmethyl)-phenylamino]-pyrimidin-4-yl}-1-methyl-urea]
67 to 100	12 to 100	27 to 100	CCN1CCN(c2ccc(Nc3cc(NC(=O)Nc4c(Cl)c(OC)cc(OC)c4Cl)ncn3)cc2)CC1 [Example 160, 1-(2,6-Dichloro-3,5-dimethoxy-phenyl)-3-{6-[4-(4-ethyl-piperazin-1-yl)-phenylamino]-pyrimidin-4-yl}-urea]
67 to 100	12 to 100	27 to 100	COc1cc(OC)c(Cl)c(NC(=O)Nc2cc(Nc3cccc(CN(C)C)c3)ncn2)c1Cl [Example 157, 1-(2,6-Dichloro-3,5-dimethoxy-phenyl)-3-[6-(3-dimethylaminomethyl-phenylamino)-pyrimidin-4-yl]-urea]
67 to 100	12 to 100	27 to 100	CCN(CC)CCCOc1ccc(Nc2cc(NC(=O)Nc3ccccc3Br)ncn2)cc1 [Example 104, 1-(2-Bromo-phenyl)-3-{6-[4-(3-diethylamino-propoxy)-phenylamino]-pyrimidin-4-yl}-urea]
67 to 100	12 to 100	27 to 100	COc1cc(NC(=O)Nc2cc(Nc3cccc(N4CCN(C)CC4)c3)ncn2)cc(OC)c1 [Example 19, 1-(3,5-Dimethoxy-phenyl)-3-{6-[3-(4-methyl-piperazin-1-yl)-phenyl-amino]-pyrimidin-4-yl}-urea]
67 to 100	12 to 100	27 to 100	COc1cc(NC(=O)Nc2cc(Nc3ccc(OCCN4CCOCC4)cc3)ncn2)c(Cl)c(OC)c1 [Example 44, 1-(2-Chloro-3,5-dimethoxy-phenyl)-3-{6-[4-(2-morpholin-4-yl-ethoxy)-phenylamino]-pyrimidin-4-yl}-urea]
67 to 100	12 to 100	27 to 100	COc1ccc(OC)c(NC(=O)Nc2cc(Nc3ccc(N4CCN(C)CC4)cc3)ncn2)c1 [Example 12, 1-(2,5-Dimethoxy-phenyl)-3-{6-[4-(4-methyl-piperazin-1-yl)-phenyl-amino]-pyrimidin-4-yl}-urea]
67 to 100	12 to 100	27 to 100	COc1cc(NC(=O)N(C)c2cc(Nc3cccc(N4CCN(C)CC4)c3)ncn2)c(Cl)c(OC)c1 [Example 51, 3-(2-Chloro-3,5-dimethoxy-phenyl)-1-methyl-1-{6-[3-(4-methyl-piperazin-1-yl)-phenylamino]-pyrimidin-4-yl}-urea]
67 to 100	12 to 100	27 to 100	O=C(Nc1cc(Nc2ccc(OCCCN3CCOCC3)cc2)ncn1)Nc1ccccc1Br [Example 99, 1-(2-Bromo-phenyl)-3-{6-[4-(3-morpholin-4-yl-propoxy)-phenylamino]-pyrimidin-4-yl}-urea]
67 to 100	12 to 100	27 to 100	COc1ccc(OC)c(NC(=O)Nc2cc(Nc3cccc(N4CCN(C)CC4)c3)ncn2)c1 [Example 13, 1-(2,5-Dimethoxy-phenyl)-3-{6-[3-(4-methyl-piperazin-1-yl)-phenyl-amino]-pyrimidin-4-yl}-urea]
67 to 100	12 to 100	27 to 100	CCN(C(=O)Nc1c(Cl)c(OC)cc(OC)c1Cl)c1cc(Nc2cccc(CN(C)C)c2)ncn1 [Example 151, 3-(2,6-Dichloro-3,5-dimethoxy-phenyl)-1-[6-(3-dimethylaminomethyl-phenylamino)-pyrimidin-4-yl]-1-ethyl-urea]
67 to 100	12 to 100	27 to 100	COc1ccc(CN(C(=O)Nc2c(Cl)ccc(OC)c2Cl)c2cc(Nc3ccc(N4CCN(C)CC4)cc3)ncn2)cn1 [Example 63, 3-(2,6-Dichloro-3-methoxy-phenyl)-1-(6-methoxy-pyridin-3-ylmethyl)-1-{6-[4-(4-methyl-piperazin-1-yl)-phenylamino]-pyrimidin-4-yl}-urea]
